# Test results published in patent publication US11459293B2, “Compositions and methods of making expanded hematopoietic stem cells using derivatives of fluorene” (ImmuneBridge Inc., priority 2017, dated 2022).
# Experiments:
# [1] = tested on: hematopoietic stem cells derived from cord blood; assay: Enhancement of hematopoietic stem cells from cord blood cultured with Compound 1.008, flow cytometry up to 19 days (Example 34); format: cell-based
# Protocol: A frozen cord blood sample was thawed and gradually brought to room temperature. Thawed cord blood was incubated in an in vitro culture media of Alpha MEM without phenol red, 10% (v/v) heat inactivated fetal bovine serum (FBS). Four samples were tested: Base conditions, +SF Conditions, +1.008 Conditions, and +1.008/+ER conditions. The components included in each condition is described in Table 4. Each condition tested also included an antibiotic solution that includes penicillin, streptomycin, and amphotericin B to avoid contamination.
# (§1) Cultures were incubated at 3% oxygen (controlled by nitrogen) and 5% CO2.
# Small molecule components were added separately and fresh each time the media needs to be refreshed. Cytokines can be stored together. Media renewal should occur at least every few days.
# On the days indicated varying amounts of the cell culture was removed for data analysis (flow cytometry using a BD FACS ARIA II) and to avoid overcrowding of cells. The culture volume was replenished with fresh media according to the conditions tested. The data reported accounts for the dilution factor introduced in this procedure.
# [2] = tested on: CD34+ cells from non-mobilized peripheral blood; assay: Long-term (21 days) expansion with Compound 1.010, non-mobilized peripheral blood (Example 36); format: cell-based, human; conditions: Compound 1.010 8 μM
# Protocol: CD34+ cells from non-mobilized peripheral blood were purchased from STEMCELL Technologies. Primary human CD34+ cells were isolated from blood samples using positive immunomagnetic separation techniques.
# Cryspreserved CD34+ cell samples from each source were thawed and gradually brought to room temperature. Samples were washed then placed in overnight culture in StemSpan with 100 ng/ml each of FLT3L, TPO, SCF, and IL-6.
# as §1
# Twenty-four hours later (day 1), cells were counted and immunophenotyped (flow cytometry on an Invitrogen Attune NxT cytometer). […] Exact cell numbers dispensed per condition were quantified for later calculations of fold change from day 1.
# Wells were analyzed at days 7 and 10, flasks were analyzed at 14 and 21 days of incubation. Cell numbers and phenotypes were quantified with flow cytometry. […] An additional seven days later (day 21 of culture), cell numbers and phenotypes were again quantified with flow cytometry. Cell numbers calculated at day 21 account for the passaging of the cells.
# Conditions in 96-well plates were prepared in quadruplicate; conditions in flasks were prepared in duplicate. On the above-indicated number of days in culture, cells from wells or flasks were collected and phenotypes were analyzed (flow cytometry on an Invitrogen Attune NxT cytometer).
# [3] = tested on: CD34+ cells isolated from donor peripheral blood (non-mobilized); assay: Enhancement of hematopoietic stem cells from non-mobilized peripheral blood, flow cytometry, fold change days 2 to 7 (Example 33); format: cell-based; conditions: 8 μM sample compound, normalized fold change days 2 to 7, 3% oxygen
# Protocol: CD34+ cells were isolated from donor peripheral blood. Standard buffy coat separation using ficoll paque was performed. Cells were pelleted and incubated with unlabeled CD64 antibody. Cells then underwent negative depletion using biotinylated CD2, CD3, CD4, CD5, CD8, CD11b, CD14, CD16, CD19, CD20, CD45RA, CD56, CD235 (in some examples CD15, CD25 and other lineage specific antibodies may also be used). Cells which bind these antibodies are depleted using streptavidin beads. The enriched progenitor pool then undergoes cell sorting for CD34+.
# Isolated CD34+ cells were incubated in an in vitro culture media of Alpha MEM without phenol red with 10% (v/v) heat inactivated fetal bovine serum (FBS). When testing compounds of Formula I, two internal controls were used: a positive control (+SF conditions) and a baseline control (i.e. basic conditions (“cytokines only”)). The media components and concentrations used for the compounds tested are described in Table 2. The culture also included an antibiotic solution that includes penicillin, streptomycin, and amphotericin B to avoid contamination. Controls were included because the amount of expansion in samples obtained varies from individual to individual. […]
# Table 3, below, summarizes the relative expansive effect of Compound 1.001 to 1.023 (sample compounds) at the indicated concentration. […] It is calculated as shown below: […]
compound,measurement,setting,value
"CC(C)(C)C(=O)Nc1ccc2c(c1)C(=O)c1cc(N)ccc1-2 [Compound 1.008, N-(7-amino-9-oxo-9H-fluoren-2-yl)pivalamide]",maintenance and expansion of hematopoietic stem cells in culture,"[1]; +1.008 Conditions (250 nM), 19 days in culture",maintained and continue to expand
same,"total number of CD34+, CD34+/CD133+, CD34+/CD133+/CD90+ and CD34+/CD133+/CD90+/CD38 low/− cells (flow cytometric cell counts)","[1]; FIG. 24B-E, versus Base and +SF conditions",increase
same,increase in CD34+ cells from day 2,"[1]; after 19 days in culture, Compound 1.008 250 nM, 3% oxygen, FIG. 25B",greater than 50 fold
same,increase in CD34+/CD133+ cells from day 2,"[1]; after 19 days in culture, Compound 1.008 250 nM, 3% oxygen, FIG. 25C",greater than 50 fold
same,increase in CD34+/CD133+/CD90+ cells from day 2,"[1]; after 19 days in culture, Compound 1.008 250 nM, 3% oxygen, FIG. 25D",~20 fold
same,increase in CD34+/CD133+/CD90+/CD38low/− cells from day 2,"[1]; after 19 days in culture, Compound 1.008 250 nM, 3% oxygen, FIG. 25E",> 12 fold
CC(C)(C)C(=O)Nc1ccc2c(c1)C(O)c1ccccc1-2 (centres unmarked) [Compound 1.010],expansion of CD34+ cells,"[2]; fold change from day 1, up to 21 days in culture, 3% oxygen, FIG. 54B",greater than nine-fold
same,expansion compared with cytokines alone,[2]; up to 21 days,far surpasses
CC(C)(C)C(=O)Nc1ccc2c(c1)C(=O)CC2 [Compound 1.019],CD90 effect (relative expansive effect on CD34+/CD133+/CD90+ cells),[3],++ (0.2 ≤ x < 0.55)
same,CD133 effect (relative expansive effect on CD34+/CD133+ cells),[3],++ (0.2 ≤ x < 0.55)
ER50891 [reference compound],fold increase levels on addition of ER50891 to +1.008 conditions,"[1]; ER50891 100 nM with Compound 1.008 250 nM, 19 days",even further improved
